Tested on: A. brasiliensis
Assay: Preservation challenge test of inoculated O/W emulsion (ISO 11930)
Type: cell-based, Aspergillus brasiliensis
Conditions: stored 22.5±2.5° C
Protocol: The evaluation of the preservation of a cosmetic formulation is based on inoculation of the formulation as outlined in table 1 with calibrated inocula (prepared from relevant strains of micro-organisms). Therefore, to each formulation 0.2 ml of calibrated inoculum is added to obtain between 1×10^2 cfu/ml and 1×10^6 cfu/ml or g of A. brasiliensis in the formulation (final concentration), which is mixed thoroughly into the formulation to ensure a homogeneous distribution of the inoculum. Then the respective containers containing the inoculated formulations are stored @22.5±2.5° C. At each specified sampling interval (initial (T0), 7 days (T7) and 28 days ([…])) 1 g of the inoculated formulation is taken and a dilution prepared to perform the enumeration of surviving micro-organisms. Then, for each time and each strain/strain mixture, the average log value is calculated which is represented in tables 2 and 3. (Procedure: see ISO 11930, chapter 5.2.-5.6.3.4. (page 3-13)) [table]

[1] = ERY 0.1 wt.-%, HG & EHG 0.9 wt.-%, time 0 days (T0)
[2] = ERY 0.1 wt.-%, HG & EHG 0.9 wt.-%, time 7 days (T7)
[3] = ERY 0.4 wt.-%, HG & EHG 0.6 wt.-%, time 0 days (T0)
[4] = ERY 0.4 wt.-%, HG & EHG 0.6 wt.-%, time 7 days (T7)

Row | SMILES | Average log [cfu/ml] [1] | Average log [cfu/ml] [2] | Average log [cfu/ml] [3] | Average log [cfu/ml] [4] | Average log [cfu/ml] (ERY 0.1 wt.-%, HG & EHG 0.9 wt.-%, time 28 days (T28)) | Average log [cfu/ml] (ERY 0.4 wt.-%, HG & EHG 0.6 wt.-%, time 28 days (T28))
1 | O=C(CO)[C@H](O)CO (racemic) [ERY, Erythrulose] | 1.8 log [cfu/ml] | 3.5 log [cfu/ml] | 2.0 log [cfu/ml] | 2.9 log [cfu/ml] |  | 
2 | CCCCC(CC)COCC(O)CO (stereo not shown) [EHG, Ethylhexyl glycerine] | 4.6 log [cfu/ml] | 4.2 log [cfu/ml] | 4.6 log [cfu/ml] | 4.4 log [cfu/ml] | 4.5 log [cfu/ml] | 4.6 log [cfu/ml]
